Assay results taken from PubChem BioAssay AID1949 (Southern Research Institute, 2009).
Converted amounts (≈) assume the structure as drawn. Records with an inconclusive call do not appear. The source made the active and inactive calls. The rule behind the calls is not given here.

Test system: M. tuberculosis H37Rv growth inhibition
Assay: Confirmatory growth inhibition assay against Mycobacterium tuberculosis H37Rv, potency (AID 1949);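 note: bacteria grown 7 days with compound before Alamar blue readout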

**Q.** O=C(Nc1ccc(Cl)c(Cl)c1)Nc1ccc(Br)cc1F was tested. Which IC50 did it give?
**A.** 0.37 µg/mL (≈ 0.979 µM)

**Q.** With Cc1ccc(-c2csc(Nc3ccc(C(=O)O)c(O)c3)n2)cc1 as the compound, how does the IC50 read?
**A.** 1.46 µg/mL (≈ 4.47 µM)

**Q.** With COc1ccc(CN2CCC(N(CCc3ccccc3)Cc3ccccc3)CC2)c(OC)c1 as the compound, how does the IC50 read?
**A.** 2.61 µg/mL (≈ 5.87 µM)

**Q.** With CCc1ccc(S(=O)(=O)Nc2ccc(I)cc2)cc1 as the compound, how does the IC50 read?
**A.** 11.7 µg/mL (≈ 30.1 µM)

**Q.** For CCc1ccc(OCC(=O)Nc2cccc(F)c2)cc1, which IC50 is on record?
**A.** 1.74 µg/mL (≈ 6.37 µM)

**Q.** Which IC50 does the source give for O=[N+]([O-])/C=C/c1c[nH]c2ccc(Br)cc12 here?
**A.** 8.61 µg/mL (≈ 32.2 µM)

**Q.** For CC(C)(C)c1cnc(NC(=O)c2ccccc2O)s1, which IC50 is on record?
**A.** 1.06 µg/mL (≈ 3.84 µM)

**Q.** How did the IC50 turn out when CCOC(=O)COc1ccc2c(c1)c(C(=O)OCC)c(C)n2CC was run?
**A.** 0.4 µg/mL (≈ 1.2 µM)

**Q.** How did the IC50 turn out when O=c1[nH]c(/C=C/c2cccc3ccccc23)nc(O)c1[N+](=O)[O-] was run?
**A.** 2.8 µg/mL (≈ 9.05 µM)

**Q.** For Cc1ccc(-c2nc(NC(=O)CO)cs2)cc1, which IC50 is on record?
**A.** 0.36 µg/mL (≈ 1.45 µM)

**Q.** Which IC50 does the source give for O=C(Nc1nc(-c2ccccc2)c(-c2ccccc2)o1)c1ccc(F)cc1 here?
**A.** < 0.1 µg/mL

**Q.** With CN(C)CC1CC(C(C)(C)C)CCC1=O (stereo not drawn) as the compound, how does the IC50 read?
**A.** 2.45 µg/mL (≈ 11.6 µM)

**Q.** Which IC50 does the source give for C=CCCCCCCCCC(=O)Nc1ccccc1C here?
**A.** 8.62 µg/mL (≈ 31.5 µM)

**Q.** OCc1cn(-c2ccccc2)nc1-c1ccc2c(c1)OCCO2 was tested. Which IC50 did it give?
**A.** 6.9 µg/mL (≈ 22.4 µM)

**Q.** Which IC50 does the source give for CN1CCN(c2ccc(C(=O)Nc3cccc(Cl)c3)cc2[N+](=O)[O-])CC1 here?
**A.** 4.41 µg/mL (≈ 11.8 µM)

**Q.** With COC(=O)COc1ccc2c(=O)c(Oc3ccccc3OC)c(C)oc2c1 as the compound, how does the IC50 read?
**A.** 1.39 µg/mL (≈ 3.75 µM)

**Q.** CCn1c2ccccc2c2cc(CN3CCC(N4CCN(c5ccccc5)CC4)CC3)ccc21 was tested. Which IC50 did it give?
**A.** 1.45 µg/mL (≈ 3.2 µM)

**Q.** How did the IC50 turn out when C=CCNCCCCOc1ccc(Cl)cc1C(C)(C)C was run?
**A.** 4.64 µg/mL (≈ 15.7 µM)

**Q.** Which IC50 does the source give for CCOC(=O)/C(C#N)=C/c1ccc(-c2ccc(F)cc2)o1 here?
**A.** 0.25 µg/mL (≈ 0.876 µM)

**Q.** With Cc1ccccc1C(=O)Nc1sc2c(c1C(=O)NCCO)CCC(C(C)(C)C)C2 (stereo not drawn) as the compound, how does the IC50 read?
**A.** > 50 µg/mL (inactive)

**Q.** With O=C(c1ccc(Cl)cc1)c1ccc(CSc2nnc(-c3ccccc3)o2)o1 as the compound, how does the IC50 read?
**A.** < 0.1 µg/mL

**Q.** How did the IC50 turn out when O=C(Nc1nc2ccc(F)cc2s1)c1ccc([N+](=O)[O-])o1 was run?
**A.** 5.11 µg/mL (≈ 16.6 µM)

**Q.** CC1CN(c2ccc([N+](=O)[O-])cc2)CCN1C(=O)c1cccc(Br)c1 (stereo not drawn) was tested. Which IC50 did it give?
**A.** 2.83 µg/mL (≈ 7 µM)

**Q.** How did the IC50 turn out when CCC(C)Oc1ccc(C(=O)NC(=S)Nc2ccc3c(c2)COC3=O)cc1 (stereo not drawn) was run?
**A.** 0.55 µg/mL (≈ 1.43 µM)

**Q.** Which IC50 does the source give for COc1cccc(N2CCN(Cc3nc(N)nc(Nc4ccc(C)c(C)c4)n3)CC2)c1 here?
**A.** 2.82 µg/mL (≈ 6.72 µM)

**Q.** For Cc1ccc(-n2c(=O)oc3ccc(Cl)cc3c2=O)cc1, which IC50 is on record?
**A.** > 50 µg/mL (inactive)

**Q.** For CC(=O)C1=C(C)NC(SCC(=O)Nc2nc3ccccc3s2)=C(C#N)C1c1ccc(Cl)cc1 (stereo not drawn), which IC50 is on record?
**A.** 4.1 µg/mL (≈ 8.28 µM)

**Q.** How did the IC50 turn out when CCOC(=O)c1ccc2nc(C)cc(Nc3ccc(N4CCCCC4)cc3)c2c1 was run?
**A.** 2.41 µg/mL (≈ 6.19 µM)

**Q.** CC1=CC(C)(C)Nc2ccc(OC(=O)c3cccnc3)cc21 was tested. Which IC50 did it give?
**A.** 2.88 µg/mL (≈ 9.78 µM)

**Q.** Cc1ccc(-c2nn(-c3ccccc3)cc2CNCc2ccccc2)o1 was tested. Which IC50 did it give?
**A.** 9.25 µg/mL (≈ 26.9 µM)

**Q.** How did the IC50 turn out when Cc1ccc(C(=O)Nc2cc(C#N)c3[nH]c4ccccc4n3c2=O)cc1 was run?
**A.** 6.55 µg/mL (≈ 19.1 µM)

**Q.** Which IC50 does the source give for Cc1cnc(NC(=O)CSc2ccc(Cl)cc2)s1 here?
**A.** 1.67 µg/mL (≈ 5.59 µM)

**Q.** With COc1cc(CNC23CC4CC(CC(C4)C2)C3)ccc1OCc1ccccc1 as the compound, how does the IC50 read?
**A.** > 50 µg/mL (inactive)

**Q.** How did the IC50 turn out when COc1cc(CNc2nccs2)cc(Br)c1OCc1ccc(F)cc1 was run?
**A.** 11.5 µg/mL (≈ 27.1 µM)

**Q.** How did the IC50 turn out when O=C(Nc1ccc(C(F)(F)F)cc1)C1COc2ccccc2O1 (stereo not drawn) was run?
**A.** 37.9 µg/mL (≈ 117 µM)

**Q.** How did the IC50 turn out when COc1ccc(OCC(=O)Nc2cccc(Cl)c2)cc1 was run?
**A.** 2.78 µg/mL (≈ 9.53 µM)

**Q.** O=C(CSc1ccc(Br)cc1)Nc1ccccc1 was tested. Which IC50 did it give?
**A.** 7.69 µg/mL (≈ 23.9 µM)

**Q.** Which IC50 does the source give for O=C(Nc1ccncc1)c1ccc2nc(-c3ccccc3)c(-c3ccccc3)nc2c1 here?
**A.** 4.64 µg/mL (≈ 11.5 µM)

**Q.** Oc1ccccc1-c1n[nH]c(/C=C/c2ccc(Br)cc2)n1 was tested. Which IC50 did it give?
**A.** 3.27 µg/mL (≈ 9.56 µM)

**Q.** With Cc1ccnc(NC(=O)COc2ccc([N+](=O)[O-])cc2)c1 as the compound, how does the IC50 read?
**A.** 0.43 µg/mL (≈ 1.5 µM)

**Q.** With COc1ccccc1-c1coc2cc(OCC(=O)OCc3ccccc3)ccc2c1=O as the compound, how does the IC50 read?
**A.** 0.35 µg/mL (≈ 0.84 µM)

**Q.** For Cc1cccnc1NC(=S)Nc1ccc(Cl)c(Cl)c1, which IC50 is on record?
**A.** 8.34 µg/mL (≈ 26.7 µM)

**Q.** With CCC(C)Oc1ccc(C(=O)NC(=S)Nc2ccc(N3CCOCC3)cc2)cc1 (stereo not drawn) as the compound, how does the IC50 read?
**A.** 1.22 µg/mL (≈ 2.95 µM)

**Q.** Which IC50 does the source give for COc1ccc(-c2nnc(SCC(=O)NCCc3ccccc3)o2)cc1 here?
**A.** < 0.1 µg/mL

**Q.** Cc1ccc2nc(-c3ccncc3)cc(C(=O)Nc3ccncc3)c2c1 was tested. Which IC50 did it give?
**A.** > 50 µg/mL (inactive)

**Q.** CCOc1ccc(OCc2ccc(C(=O)Nc3cccc(C)n3)o2)cc1 was tested. Which IC50 did it give?
**A.** 7.11 µg/mL (≈ 20.2 µM)

**Q.** For CCC(=O)N1CCN(c2ccc(Cl)cc2NC(=O)CC23CC4CC(CC(C4)C2)C3)CC1, which IC50 is on record?
**A.** 6.98 µg/mL (≈ 15.7 µM)

**Q.** CCCC(=O)N1CCN(c2ccc(NC(=O)c3cc4ccccc4o3)cc2Cl)CC1 was tested. Which IC50 did it give?
**A.** 33.7 µg/mL (≈ 79.1 µM)

**Q.** How did the IC50 turn out when COC(=O)Cc1c(C)c2ccc(OCC(=O)OCc3ccccc3)c(C)c2oc1=O was run?
**A.** 0.11 µg/mL (≈ 0.268 µM)

**Q.** With CCOC(=O)c1c(C)n(-c2ccc(C)cc2)c2ccc(O)c(CN(C)C)c12 as the compound, how does the IC50 read?
**A.** 10.9 µg/mL (≈ 29.6 µM)

**Q.** How did the IC50 turn out when O=C(NCc1ccc2c(c1)OCO2)c1cnn2c1NC(c1cccs1)CC2C(F)(F)F (stereo not drawn) was run?
**A.** 0.13 µg/mL (≈ 0.289 µM)

**Q.** Which IC50 does the source give for COc1ccc(Cn2c(=O)c3c(n4cnnc24)-c2ccccc2CC32CCCCC2)cc1 here?
**A.** 2.84 µg/mL (≈ 6.66 µM)

**Q.** For CCc1ccc(C2=CC(=O)c3ccccc3C2=O)cc1, which IC50 is on record?
**A.** 5.94 µg/mL (≈ 22.6 µM)

**Q.** CC(=O)c1ccc(NC(=O)Nc2cc(OCC(F)(F)F)cc(OCC(F)(F)C(F)F)c2)cc1 was tested. Which IC50 did it give?
**A.** 2.74 µg/mL (≈ 5.68 µM)

**Q.** For Cc1ccc(C(=O)Nc2ccc(C(F)(F)F)cc2)s1, which IC50 is on record?
**A.** 4.67 µg/mL (≈ 16.4 µM)

**Q.** For CCn1c2ccccc2c2nnc(SCCCn3c(=O)[nH]c4ccccc43)nc21, which IC50 is on record?
**A.** > 50 µg/mL (inactive)

**Q.** CC(C)OC(=O)COc1ccc(C(=O)NCc2ccccc2)cc1 was tested. Which IC50 did it give?
**A.** 0.91 µg/mL (≈ 2.78 µM)

**Q.** With COC(=O)C(CC(=O)c1ccc(Br)cc1)n1ccnc1 (stereo not drawn) as the compound, how does the IC50 read?
**A.** 0.7 µg/mL (≈ 2.08 µM)
